We go through eleven compounds from ChEMBL document CHEMBL1201862, “PubChem BioAssay data set” (2004).

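In this assay, cells in 96-well plates receive the compound at five concentrations for 48 hours. Endpoints are linearly interpolated between the surrounding concentrations. The concentration for 50% growth inhibition is given as GI50.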 Calls of active or inactive are those of the source. No stated cut-off is given here; in the data, active = GI50 up to about 1.1 µM and inactive = higher. Where only a bound is given, the exact number is not on record here.

Among the test systems are NCI-H460; SNB-19; UACC-62; IGROV-1; EKVX; NCI-H226; CAKI-1; A549; CCRF-CEM; HCT-116; SK-MEL-28; SK-OV-3; SK-MEL-5; M14; COLO 205; SR; U-251; OVCAR-5; HL-60; OVCAR-4.
Assay in all cases: DTP human tumour cell line panel, 48 h

As a reminder, the GI50 is the concentration that inhibits growth by half. For `CCOC(=O)c1ccc(-n2cnc(-c3ccc([N+](=O)[O-])cc3)c2)cc1`, the GI50 in the test with NCI-H460 is > 100 µM (inactive); in the test on SNB-19, 35.7 µM (inactive); in the test with UACC-62, > 100 µM (inactive); with IGROV-1 it was > 100 µM (inactive); in the test with EKVX, > 100 µM (inactive); in the test with NCI-H226, > 100 µM (inactive). Further, the GI50 is > 100 µM (inactive) in the test with CAKI-1; > 100 µM (inactive) in the test on A549; > 100 µM (inactive) with CCRF-CEM; 31.4 µM (inactive) in the test on HCT-116; > 100 µM (inactive) with SK-MEL-28; > 100 µM (inactive) with SK-OV-3. Besides, the GI50 is 25.3 µM (inactive) in the test with SK-MEL-5; > 100 µM (inactive) in the test on M14; > 100 µM (inactive) in the test with COLO 205; > 100 µM (inactive) in the test on SR; 25.2 µM (inactive) with U-251; > 100 µM (inactive) in the test on OVCAR-5. Further, the GI50 with HL-60 is > 100 µM (inactive).
Consider `CCOC(=O)c1ccc2c(c1)nc1n2C(c2c(F)cccc2F)SC1` (centres undefined), for which the GI50 in the test with NCI-H460 was 26.3 µM (inactive); in the test with SNB-19, 12.2 µM (inactive); in the test on UACC-62, 25.4 µM (inactive); in the test on IGROV-1 it was 0.951 µM (active); in the test with NCI-H226 it was 6.9 µM (inactive); in the test with CAKI-1, 78.3 µM (inactive). Besides, the GI50 is 23.6 µM (inactive) with A549; 33.5 µM (inactive) in the test with CCRF-CEM; 15.6 µM (inactive) in the test with HCT-116; 46.6 µM (inactive) with OVCAR-4; 97.1 µM (inactive) with SK-MEL-28; 94.6 µM (inactive) in the test with SK-OV-3. In addition, the GI50 in the test on SK-MEL-5 was 13.1 µM (inactive); in the test with M14, 27.9 µM (inactive); in the test with COLO 205, 14.2 µM (inactive); in the test with SR, 25.6 µM (inactive); in the test with U-251, 55.6 µM (inactive); in the test with OVCAR-5 it was 59.6 µM (inactive). Moreover, the GI50 in the test with HL-60 is 24.4 µM (inactive).
As to `C/C(=N\N=C(/S)SCc1ccccc1)c1ccccn1`, the GI50 was 0.26 µM (active) in the test on NCI-H460; 2.97 µM (inactive) in the test on SNB-19; 0.463 µM (active) in the test with UACC-62; < 0.01 µM (active) in the test with IGROV-1; < 0.01 µM (active) in the test with EKVX; < 0.01 µM (active) in the test with NCI-H226. In addition, the GI50 in the test with CAKI-1 was < 0.0504 µM (active); in the test on A549 it was 0.17 µM (active); in the test with CCRF-CEM, < 0.01 µM (active); in the test on HCT-116, < 0.01 µM (active); in the test on OVCAR-4, < 0.01 µM (active); in the test with SK-OV-3, < 0.01 µM (active). Also, the GI50 in the test on SK-MEL-5 is 0.0635 µM (active); in the test with M14, < 0.0267 µM (active); in the test on COLO 205, < 0.01 µM (active); in the test on SR it was < 0.01 µM (active); with U-251, < 0.0192 µM (active); in the test on HL-60, < 0.01 µM (active).
For `CC(C)COP(C)(=O)C(N)(C(F)(F)F)C(F)(F)F` (centres undefined), the GI50 with UACC-62, in the test with IGROV-1, in the test with EKVX, in the test with NCI-H226, in the test with CAKI-1 and in the test on A549 was > 100 µM (inactive) each time. Moreover, the GI50 is 88.1 µM (inactive) in the test with CCRF-CEM; > 100 µM (inactive) with HCT-116; > 100 µM (inactive) with OVCAR-4; > 100 µM (inactive) in the test with SK-MEL-28; > 100 µM (inactive) in the test with SK-OV-3; > 100 µM (inactive) with SK-MEL-5. Also, the GI50 in the test with M14, in the test with COLO 205, in the test with SR, with U-251, in the test on OVCAR-5 and with HL-60 was > 100 µM (inactive) throughout.
Regarding `O=C(CNc1ccc(Cl)cc1Cl)NC1C=Cc2ccc(S(=O)(=O)Nc3ccc(Cl)cc3Cl)cc2C1=O` (centres undefined), the GI50 in the test with NCI-H460, in the test with SNB-19, in the test on UACC-62, with IGROV-1, with EKVX and in the test with NCI-H226 was > 100 µM (inactive) throughout. The GI50 in the test on CAKI-1 is > 100 µM (inactive); in the test with A549 it was > 100 µM (inactive); in the test on CCRF-CEM, 9.18 µM (inactive); with HCT-116, > 100 µM (inactive); with SK-MEL-28 it was > 100 µM (inactive); in the test with SK-OV-3 it was > 100 µM (inactive). The GI50 with M14, in the test on COLO 205, with SR, with U-251, with OVCAR-5 and with HL-60 was > 100 µM (inactive) each time.
Take `O=Cc1ccc2[nH]c(=O)oc2c1`: the GI50 with NCI-H460, in the test with SNB-19, with UACC-62, with IGROV-1, in the test on EKVX and in the test with NCI-H226 was > 100 µM (inactive) each time. Besides, the GI50 in the test with CAKI-1 was > 100 µM (inactive); with CCRF-CEM, 42.3 µM (inactive); with HCT-116 it was > 100 µM (inactive); in the test on SK-MEL-28, > 100 µM (inactive); in the test with SK-OV-3 it was > 100 µM (inactive); in the test on M14, > 100 µM (inactive). Further, the GI50 with COLO 205 was > 100 µM (inactive); in the test on SR, 39.7 µM (inactive); in the test with U-251, 84.5 µM (inactive); with OVCAR-5, > 100 µM (inactive); in the test with HL-60 it was 99.5 µM (inactive).
Take `CSc1nc2c(nc(N)n2C2OCC(O)C(O)C2O)c(=O)n1C` (centres undefined): the GI50 in the test with NCI-H460, in the test with SNB-19, in the test on UACC-62, in the test on IGROV-1, with EKVX and in the test with NCI-H226 was > 100 µM (inactive) in each case. Also, the GI50 in the test on CAKI-1, in the test on A549, with CCRF-CEM, in the test on HCT-116, with OVCAR-4 and in the test with SK-MEL-28 was > 100 µM (inactive) in each case. For the same compound, the GI50 in the test on SK-OV-3, in the test on SK-MEL-5, in the test on M14, with COLO 205, in the test on SR and in the test on U-251 was > 100 µM (inactive) each time. Further, the GI50 in the test on HL-60 is > 100 µM (inactive).
With `CCCCCCCC/C=C\CCCCCCCC(=O)NCCN(CCN)C(=O)CCCCCCC/C=C\CCCCCCCC`, the GI50 is > 100 µM (inactive) in the test with NCI-H460; > 100 µM (inactive) with SNB-19; > 100 µM (inactive) in the test with UACC-62; > 100 µM (inactive) in the test with IGROV-1; > 100 µM (inactive) with NCI-H226; 51.5 µM (inactive) in the test on CAKI-1. Moreover, the GI50 in the test on A549, with CCRF-CEM, with HCT-116, with OVCAR-4, in the test on SK-MEL-28 and with SK-OV-3 was > 100 µM (inactive) each time. For the same compound, the GI50 in the test on SK-MEL-5, in the test with M14, in the test with COLO 205, in the test with SR, in the test with U-251 and with OVCAR-5 was > 100 µM (inactive) each time. Moreover, the GI50 in the test with HL-60 was > 100 µM (inactive).
For the compound `CN1CCN(CCCN)CC1`, the GI50 in the test with SNB-19, in the test with UACC-62, with IGROV-1, with EKVX, in the test on NCI-H226 and with CAKI-1 was > 100 µM (inactive) each time. Also, the GI50 in the test with A549, in the test with CCRF-CEM, in the test on HCT-116, with OVCAR-4, with SK-MEL-28 and in the test with SK-OV-3 was > 100 µM (inactive) each time. The GI50 in the test with SK-MEL-5, in the test on M14, in the test on COLO 205, with SR, with U-251 and in the test with OVCAR-5 was > 100 µM (inactive) in each case. Besides, the GI50 in the test with HL-60 was > 100 µM (inactive).
As for `CCSCCCC(=O)O`, the GI50 with SNB-19, in the test on UACC-62, with IGROV-1, in the test on EKVX, with NCI-H226 and in the test on CAKI-1 was > 100 µM (inactive) in each case. Also, the GI50 in the test on A549, in the test on CCRF-CEM, with HCT-116, with OVCAR-4, in the test with SK-MEL-28 and in the test on SK-OV-3 was > 100 µM (inactive) throughout. The GI50 with SK-MEL-5, with M14, in the test with COLO 205, in the test with SR, in the test on U-251 and in the test on OVCAR-5 was > 100 µM (inactive) throughout. Besides, the GI50 in the test on HL-60 was > 100 µM (inactive).
As to `O=C(Nc1cc(Cl)c(Cl)cc1Cl)C(=O)C(C(=O)c1ccc2ccccc2c1)C1OC(=O)c2ccccc21` (centres undefined), the GI50 with NCI-H460 is 10.4 µM (inactive); with SNB-19, 11.6 µM (inactive); in the test with UACC-62 it was 12.1 µM (inactive); in the test on IGROV-1, 16.3 µM (inactive); in the test with EKVX, 15.4 µM (inactive); with NCI-H226 it was 2.65 µM (inactive). The GI50 was > 10 µM (inactive) with CAKI-1; 19.1 µM (inactive) in the test on A549; 11 µM (inactive) in the test with HCT-116; > 10 µM (inactive) in the test with OVCAR-4; 10.3 µM (inactive) in the test with SK-MEL-28; 60.4 µM (inactive) in the test with SK-OV-3. Moreover, the GI50 in the test on SK-MEL-5 is 11.8 µM (inactive); in the test on M14, 21.8 µM (inactive); in the test with COLO 205, 17 µM (inactive); with SR, 4.66 µM (inactive); in the test on U-251, 4.47 µM (inactive); with OVCAR-5 it was 16.5 µM (inactive). Further, the GI50 with HL-60 was 13.2 µM (inactive).
